Measured values as given in patent US20140057915A1, “KINASE INHIBITORS” (TOPIVERT PHARMA LIMITED, priority 2012, published 2014).

How the values were obtained:
cSrc = cSrc (Homo sapiens, UniProt P12931); test: c-Src enzyme inhibition (FRET); type: biochemical; conditions: Table 4a1
Summary of the method: (§1)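 2 hr RT enzyme + cpd (added solns 4/0.4/0.04/0.004 μg/mL); + FRET peptide (8 μM soln) + ATP soln (c-Src 800 μM, Syk 60 μM), 1 hr; protease development 1 hr; read donor/acceptor emission ratio.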

Syk = Syk (Homo sapiens, UniProt P43405); test: Syk enzyme inhibition (FRET); type: biochemical; conditions: Table 4a1
Summary of the method: as §1

GSK3α = GSK3α (Homo sapiens, UniProt P49840); test: GSK 3α enzyme inhibition (FRET), Method 1; type: biochemical; conditions: Table 4a1
Summary of the method: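 Inhibition is scored from phosphorylation of a dual-labelled synthetic peptide, measured by FRET after protease cleavage of unphosphorylated substrate. Incubations are 2 hr compound with enzyme, then 1 hr kinase reaction.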

[1] = system: TNFα release, d-U937 cells; test: LPS-induced TNFα release in d-U937 cells; type: cell-based; conditions: Homo sapiens, dU937; relative to 10 μg/mL BIRB796; Table 4c1; read-out: LPS Induced Release of Cytokine in d-U937 Cells, TNFα REC50
Summary of the method: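 Sandwich ELISA quantifies cytokine in supernatants after 4 hr LPS challenge (0.1 μg/mL) of PMA-differentiated (100 ng/mL, 48–72 hr) U937 macrophages given compound 2 hr beforehand. REC50 derived from concentration-response curve, inhibition calculated relative to vehicle.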

[2] = system: IL-8 release, d-U937 cells; test: LPS-induced IL-8 release in d-U937 cells; type: cell-based; conditions: Homo sapiens, dU937; Table 4c1; read-out: LPS Induced Release of Cytokine in d-U937 Cells, IL-8 IC50
Summary of the method: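 IL-8 release after a 4 hr challenge with LPS (0.1 μg/mL, E. coli 0111:B4) following a 2 hr compound pretreatment. Cells were human U937 monocytes differentiated to macrophage-type with PMA 100 ng/mL for 48–72 hr. Relative 50% effective concentration derived from concentration–response data.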

[3] = system: ICAM-1 expression, BEAS2B cells; test: Poly I:C-induced ICAM-1 expression in BEAS2B cells; type: cell-based; conditions: Homo sapiens, BEAS-2B; read-out: Poly IC induced ICAM1 in BEAS2B, IC50
Summary of the method: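 Cell-based ELISA for surface ICAM-1 in human BEAS2B cells 18 h after transfection with the RNA-virus mimic poly I:C (1 μg/mL, with Oligofectamine), compounds added 2 h beforehand. OD450–655 divided by Crystal Violet OD595 per well; percent inhibition relative to vehicle.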

PBMC cells = test: Cell mitosis assay; type: cell-based; conditions: Homo sapiens, read-out: % Inhibition of mitosis in PBMC cells at 5 μg/mL
Description: PBMCs from healthy subjects are separated from whole blood (Quintiles, London, UK) using a density gradient (Histopaque®-1077, Sigma-Aldrich, Poole, UK). The PBMCs (3 million cells per sample) are subsequently treated with 2% PHA (Sigma-Aldrich, Poole, UK) for 48 hr, followed by a 20 hr exposure to varying concentrations of test compounds. At 2 hr before collection, PBMCs are treated with demecolcine (0.1 μg/mL; Invitrogen, Paisley, UK) to arrest cells in metaphase. […] Fluorescence is observed using an ATTUNE flow cytometer (Invitrogen, Paisley, UK), gating for lymphocytes.

d-U937 cells = test: Cell viability: MTT assay; type: cell-based, human; conditions: 1 μg/mL
Summary of the method: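 MTT reduction (1 h, DMSO solubilisation, A550) measured after compound treatment at 1 or 10 μg/mL of differentiated U937 cells for 4 h (5% FCS RPMI1640) or 24 h (10% FCS). Percentage viability loss computed relative to 0.5% DMSO vehicle, with increases tabulated as negative values.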

Chain of cSrc (P12931 whole entry): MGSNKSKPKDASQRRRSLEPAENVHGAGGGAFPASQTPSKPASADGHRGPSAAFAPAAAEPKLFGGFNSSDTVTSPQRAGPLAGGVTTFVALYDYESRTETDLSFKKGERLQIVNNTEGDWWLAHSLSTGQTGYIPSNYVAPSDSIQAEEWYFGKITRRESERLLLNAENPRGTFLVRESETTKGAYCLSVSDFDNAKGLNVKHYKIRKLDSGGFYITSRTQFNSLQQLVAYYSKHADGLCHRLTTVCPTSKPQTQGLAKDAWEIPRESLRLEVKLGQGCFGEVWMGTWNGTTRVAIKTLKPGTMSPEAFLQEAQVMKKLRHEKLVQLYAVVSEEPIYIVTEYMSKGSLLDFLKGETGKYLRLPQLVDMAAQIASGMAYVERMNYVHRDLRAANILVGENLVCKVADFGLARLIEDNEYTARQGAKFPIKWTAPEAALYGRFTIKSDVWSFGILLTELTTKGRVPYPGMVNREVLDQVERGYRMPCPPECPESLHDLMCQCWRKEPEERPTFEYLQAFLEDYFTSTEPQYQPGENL
Chain of GSK3α (P49840 whole entry): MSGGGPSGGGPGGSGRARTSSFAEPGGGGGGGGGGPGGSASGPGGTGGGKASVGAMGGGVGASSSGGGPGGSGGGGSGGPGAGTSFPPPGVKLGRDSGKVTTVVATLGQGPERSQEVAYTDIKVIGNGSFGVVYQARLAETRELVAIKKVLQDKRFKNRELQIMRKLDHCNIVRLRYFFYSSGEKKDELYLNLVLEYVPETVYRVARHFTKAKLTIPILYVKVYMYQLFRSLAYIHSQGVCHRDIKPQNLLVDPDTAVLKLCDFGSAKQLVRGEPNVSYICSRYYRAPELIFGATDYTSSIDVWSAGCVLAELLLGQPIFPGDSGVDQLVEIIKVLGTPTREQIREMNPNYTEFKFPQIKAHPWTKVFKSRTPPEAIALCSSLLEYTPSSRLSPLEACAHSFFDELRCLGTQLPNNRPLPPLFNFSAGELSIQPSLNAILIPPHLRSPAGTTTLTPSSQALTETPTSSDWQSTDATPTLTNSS

| IC50 (cSrc) | IC50 (Syk) | IC50 (GSK3α) | EC50 [1] | IC50 [2] | Compound | IC50 [3] | inhibition at 5 µg/mL (PBMC cells) | Cell viability at time point in d-U937 cells, 4 h (d-U937 cells) | Cell viability at time point in d-U937 cells, 24 h (d-U937 cells) |
| --- | --- | --- | --- | --- | --- | --- | --- | --- | --- |
| 9 nM | 17 nM | 3950 nM | 0.2 nM | 0.3 nM | Cc1ccc(-n2nc(C(C)C)cc2NC(=O)Nc2ccc(Oc3ccnc(Nc4cc(C)cc(C(=O)NCCN5CCOCC5)c4)n3)c3ccccc23)cc1 [Example 44, 3-((4-((4-(3-(3-isopropyl-1-(p-tolyl)-1H-pyrazol-5-yl)ureido)naphthalen-1-yl)oxy)pyrimidin-2-yl)amino)-5-methyl-N-(2-morpholinoethyl)benzamide] | 1.9 nM | 37.2% | −ve (−ve and +ve indicate that the value is below and above respectively, the no significant effect threshold, defined as 30% inhibition at 1 μg/mL at the time point indicated) | −ve (−ve and +ve indicate that the value is below and above respectively, the no significant effect threshold, defined as 30% inhibition at 1 μg/mL at the time point indicated) |
| – | 4 nM | 1240 nM | 0.3 nM | 0.2 nM | Cc1ccc(-n2nc(C(C)C)cc2NC(=O)Nc2ccc(Oc3ccnc(Nc4cccc(C(=O)NCCN5CCOCC5)c4)n3)c3ccccc23)cc1 [Example 19, 3-((4-((4-(3-(3-isopropyl-1-(p-tolyl)-1H-pyrazol-5-yl)ureido)naphthalen-1-yl)oxy)pyrimidin-2-yl)amino)-N-(2-morpholinoethyl)benzamide] | – | 25.3% | −ve (−ve and +ve indicate that the value is below and above respectively, the no significant effect threshold, defined as 30% inhibition at 1 μg/mL at the time point indicated) | −ve (−ve and +ve indicate that the value is below and above respectively, the no significant effect threshold, defined as 30% inhibition at 1 μg/mL at the time point indicated) |
| 5 nM | 16 nM | 509 nM | 0.5 nM | 1 nM | COc1cc(Nc2nccc(Oc3ccc(NC(=O)Nc4cc(C(C)C)nn4-c4ccc(C)cc4)c4ccccc34)n2)cc(C(=O)N2CCOCC2)c1 [Example 12, 1-(3-Isopropyl-1-(p-tolyl)-1H-pyrazol-5-yl)-3-(4-((2-((3-methoxy-5-(morpholine-4-carbonyl)phenyl)amino)pyrimidin-4-yl)oxy)naphthalen-1-yl)urea] | 2.5 nM | 27.8% | −ve (−ve and +ve indicate that the value is below and above respectively, the no significant effect threshold, defined as 30% inhibition at 1 μg/mL at the time point indicated) | −ve (−ve and +ve indicate that the value is below and above respectively, the no significant effect threshold, defined as 30% inhibition at 1 μg/mL at the time point indicated) |
| 2 nM | 7 nM | 1470 nM | 0.2 nM | 1.3 nM | COc1cc(Nc2nccc(Oc3ccc(NC(=O)Nc4cc(C(C)C)nn4-c4ccc(C)cc4)c4ccccc34)n2)cc(C(=O)NCCN(C)C)c1 [Example 5, N-(2-(Dimethylamino)ethyl)-3-((4-((4-(3-(3-isopropyl-1-(p-tolyl)-1H-pyrazol-5-yl)ureido)naphthalen-1-yl)oxy)pyrimidin-2-yl)amino)-5-methoxybenzamide] | 0.2 nM | 28.3% | −ve (−ve and +ve indicate that the value is below and above respectively, the no significant effect threshold, defined as 30% inhibition at 1 μg/mL at the time point indicated) | −ve (−ve and +ve indicate that the value is below and above respectively, the no significant effect threshold, defined as 30% inhibition at 1 μg/mL at the time point indicated) |
